Reference: ChEMBL document CHEMBL4680243, “N-benzyl 4,4-disubstituted piperidines as a potent class of influenza H1N1 virus inhibitors showing a novel mechanism of hemagglutinin fusion peptide interaction” (Eur J Med Chem, 2020)
Active and inactive are the calls of the source. The calls are words filed in the database; no cut-off is given here.

Tests used:
[1] = molecular target: T1, Cathepsin F (Homo sapiens) (UniProt Q9UBX1); experiment: Inhibition of recombinant human cathepsin F expressed in baculovirus infected insect cells at 1 uM using Z-Phe-Arg-AMC as substrate preincubated for 15 mins followed by substrate addition and measured for 60 mins by fluorescence assay relative to control; settings: time 75.0 min
T1 sequence (whole entry): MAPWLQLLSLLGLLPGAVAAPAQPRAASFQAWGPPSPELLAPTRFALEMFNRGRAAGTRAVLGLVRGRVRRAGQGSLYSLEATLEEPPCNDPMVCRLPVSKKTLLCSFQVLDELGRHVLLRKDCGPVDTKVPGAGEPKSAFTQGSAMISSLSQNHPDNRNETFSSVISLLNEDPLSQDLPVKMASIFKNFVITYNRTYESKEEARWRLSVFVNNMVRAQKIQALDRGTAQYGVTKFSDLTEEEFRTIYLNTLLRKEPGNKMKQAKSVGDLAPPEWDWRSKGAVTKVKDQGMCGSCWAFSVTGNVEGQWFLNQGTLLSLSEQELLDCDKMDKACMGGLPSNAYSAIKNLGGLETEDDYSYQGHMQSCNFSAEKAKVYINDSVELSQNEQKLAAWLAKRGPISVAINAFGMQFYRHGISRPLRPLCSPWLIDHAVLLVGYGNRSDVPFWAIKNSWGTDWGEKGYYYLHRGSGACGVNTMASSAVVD

[2] = molecular target: Procathepsin L (Homo sapiens) (UniProt P07711); experiment: Inhibition of human liver cathepsin L at 1 uM using Z-Phe-Arg-AMC as substrate preincubated for 15 mins followed by substrate addition and measured for 60 mins by fluorescence assay; settings: time 75.0 min
Sequence of Procathepsin L (Homo sapiens) (P07711 114-333 limits assumed): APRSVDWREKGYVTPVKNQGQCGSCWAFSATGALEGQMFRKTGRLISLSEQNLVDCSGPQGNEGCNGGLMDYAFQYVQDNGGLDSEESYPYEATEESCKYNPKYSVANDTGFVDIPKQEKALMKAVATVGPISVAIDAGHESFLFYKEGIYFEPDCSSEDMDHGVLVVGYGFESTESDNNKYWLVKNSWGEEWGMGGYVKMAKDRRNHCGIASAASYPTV

[3] = molecular target: Cathepsin B (Homo sapiens) (UniProt P07858); experiment: Inhibition of human liver cathepsin B at 1 uM using Z-Phe-Arg-AMC as substrate preincubated for 15 mins followed by substrate addition and measured for 60 mins by fluorescence assay; settings: time 75.0 min
[4] = molecular target: Hemagglutinin (Influenza A virus (A/Puerto Rico/8/1934(H1N1))) (UniProt P03452); experiment: Inhibition of Influenza A virus (A/PR 8/34 (H1N1)) hemagglutinin infected in MDCK cells assessed as reduction in virus binding to cell surface at 200 uM relative to control; type: cell-based
Sequence of Hemagglutinin (Influenza A virus (A/Puerto Rico/8/1934(H1N1))) (P03452 whole entry): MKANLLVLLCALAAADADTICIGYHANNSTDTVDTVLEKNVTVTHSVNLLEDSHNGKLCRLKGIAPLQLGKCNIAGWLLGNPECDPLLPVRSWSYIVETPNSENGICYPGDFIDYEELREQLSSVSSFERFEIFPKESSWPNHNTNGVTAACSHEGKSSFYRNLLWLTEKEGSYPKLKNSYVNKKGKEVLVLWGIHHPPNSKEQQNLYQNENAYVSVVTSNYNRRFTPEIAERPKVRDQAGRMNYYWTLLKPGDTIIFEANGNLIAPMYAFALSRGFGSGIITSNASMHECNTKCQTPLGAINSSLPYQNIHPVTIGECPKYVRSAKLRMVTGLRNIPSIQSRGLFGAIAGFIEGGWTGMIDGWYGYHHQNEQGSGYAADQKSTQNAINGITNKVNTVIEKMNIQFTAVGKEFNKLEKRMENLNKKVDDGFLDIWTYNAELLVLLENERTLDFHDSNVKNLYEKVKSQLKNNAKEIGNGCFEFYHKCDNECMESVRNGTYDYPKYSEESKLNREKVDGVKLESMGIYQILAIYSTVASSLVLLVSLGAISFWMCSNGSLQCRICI

[5] = test system: Influenza A virus; experiment: Antiviral activity against Influenza A virus (A/PR 8/34 (H1N1)) infected in MDCK cells assessed as reduction in viral RNA synthesis at 20 uM treated at 1 hr post-infection by RT-qPCR analysis; type: functional, organism-based; settings: A/Puerto Rico/8/1934(H1N1)
[6] = test system: Influenza A virus; experiment: Antiviral activity against Influenza A virus (A/PR 8/34 (H1N1)) infected in MDCK cells assessed as reduction in viral RNA synthesis at 2 uM treated at 5 hrs post-infection by RT-qPCR analysis; type: functional, organism-based; settings: A/Puerto Rico/8/1934(H1N1)
[7] = Selectivity index, ratio of CC50 for MDCK cells to EC50 for antiviral activity against Influenza A virus (A/Puerto Rico/8/1934(H1N1)) infected in MDCK cells; type: toxicity, cell-based; settings: dog, read-out: Ratio CC50/EC50
[8] = test system: Influenza A virus; experiment: Antiviral activity against Influenza A virus (A/PR 8/34 (H1N1)) infected in MDCK cells assessed as reduction in virus-induced cytopathic effect measured after 72 hrs by MTS assay; type: functional, organism-based; settings: A/Puerto Rico/8/1934(H1N1)
[9] = Cytotoxicity against MDCK cells assessed as reduction in cell viability measured after 72 hrs by MTS assay; type: cell-based, Canis lupus familiaris; settings: dog
[10] = Cytotoxicity against MDCK cells assessed as change in cell morphology measured after 72 hrs by microscopic analysis; type: cell-based, Canis lupus familiaris; settings: dog
[11] = molecular target: T1, Cathepsin F (Homo sapiens); experiment: Inhibition of recombinant human cathepsin F expressed in baculovirus infected insect cells using Z-Phe-Arg-AMC as substrate preincubated for 15 mins followed by substrate addition and measured for 60 mins by fluorescence assay; settings: time 75.0 min
[12] = molecular target: T2, Trypsin (Homo sapiens) (UniProt P07477+P07478+P35030); experiment: Inhibition of human trypsin using Boc-Gln-Ala-Arg-AMC as substrate preincubated for 15 mins followed by substrate addition and measured for 60 mins by fluorescence assay; type: protein assay; settings: time 75.0 min
[13] = molecular target: Cathepsin B (Homo sapiens) (UniProt P07858); experiment: Inhibition of human liver cathepsin B using Z-Phe-Arg-AMC as substrate preincubated for 15 mins followed by substrate addition and measured for 60 mins by fluorescence assay; settings: time 75.0 min
[14] = molecular target: Procathepsin L (Homo sapiens) (UniProt P07711); experiment: Inhibition of human liver cathepsin L using Z-Phe-Arg-AMC as substrate preincubated for 15 mins followed by substrate addition and measured for 60 mins by fluorescence assay; settings: time 75.0 min
[15] = molecular target: T3, Transmembrane protease serine 11D (Homo sapiens) (UniProt O60235); experiment: Inhibition of recombinant human N-terminal His-tagged HAT (Ala42 to Ile418 residues) expressed in mouse NSO cells using Boc-Gln-Ala-Arg-AMC as substrate preincubated for 15 mins followed by substrate addition and measured for 60 mins by fluorescence assay; settings: time 75.0 min
T3 sequence (whole entry): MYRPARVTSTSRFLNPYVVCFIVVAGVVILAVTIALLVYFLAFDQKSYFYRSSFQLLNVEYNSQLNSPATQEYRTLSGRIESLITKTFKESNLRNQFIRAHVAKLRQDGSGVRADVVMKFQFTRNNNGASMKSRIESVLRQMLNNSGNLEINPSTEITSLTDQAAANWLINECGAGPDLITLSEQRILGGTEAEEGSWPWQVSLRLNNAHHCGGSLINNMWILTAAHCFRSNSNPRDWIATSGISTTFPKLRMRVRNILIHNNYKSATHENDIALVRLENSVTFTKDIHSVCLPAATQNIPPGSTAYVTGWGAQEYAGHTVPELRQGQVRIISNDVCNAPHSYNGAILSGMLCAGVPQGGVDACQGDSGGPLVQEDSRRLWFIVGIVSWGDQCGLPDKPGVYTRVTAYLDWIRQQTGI

[16] = test system: Influenza A virus; experiment: Antiviral activity against Influenza A virus (A/PR 8/34 (H1N1)) infected in MDCK cells assessed as reduction in virus-induced cytopathic effect measured after 72 hrs by microscopic analysis; type: functional, organism-based; settings: A/Puerto Rico/8/1934(H1N1)
[17] = test system: Influenza A virus; experiment: Antiviral activity against Influenza A virus (A/PR 8/34 (H1N1)) clone 1 infected in MDCK cells assessed as reduction in virus-induced cytopathic effect measured after 72 hrs by MTS assay; type: functional, organism-based; settings: A/Puerto Rico/8/1934(H1N1)
[18] = test system: Influenza A virus; experiment: Antiviral activity against Influenza A virus (A/PR 8/34 (H1N1)) clone 1 infected in MDCK cells assessed as reduction in virus-induced cytopathic effect measured after 72 hrs by microscopic analysis; type: functional, organism-based; settings: A/Puerto Rico/8/1934(H1N1)
[19] = molecular target: T2, Trypsin (Homo sapiens); experiment: Inhibition of human trypsin at 1 uM using Boc-Gln-Ala-Arg-AMC as substrate preincubated for 15 mins followed by substrate addition and measured for 60 mins by fluorescence assay relative to control; type: protein assay; settings: time 75.0 min
[20] = molecular target: T3, Transmembrane protease serine 11D (Homo sapiens); experiment: Inhibition of recombinant human N-terminal His-tagged HAT (Ala42 to Ile418 residues) expressed in mouse NSO cells at 1 uM using Boc-Gln-Ala-Arg-AMC as substrate preincubated for 15 mins followed by substrate addition and measured for 60 mins by fluorescence assay relative to control; settings: time 75.0 min

CC(C)C[C@H](NC(=O)[C@@H]1C[C@H]1C(=O)O)C(=O)NCCCCNC(=N)N
inhibition [1]: 50%
inhibition [2]: Active
inhibition [3]: Active

CCCCCCCCCCCCCCCCCCCCCCOCC(C)(COCCCCCCCCCCCCCCCCCCCCCC)CO[C@]1(C(=O)O)C[C@H](OS(=O)(=O)O)[C@@H](NC(C)=O)[C@H]([C@H](O)[C@@H](COS(=O)(=O)O)OS(=O)(=O)O)O1
inhibition [4]: 96%

CCN(CC)CCCC(C)Nc1ccnc2cc(Cl)ccc12 (stereo not drawn)
Activity [5]: Active

Cc1onc(-c2ccccc2)c1C(=O)N1CCN(c2ccc([N+](=O)[O-])cc2Cl)CC1
Activity [6]: Active

COC(=O)C[C@H](NC(=O)OCc1ccccc1)C(=O)N(C1CC1)C1(C(=O)NCc2ccccc2)CCN(Cc2ccccc2)CC1
selectivity ratio [7]: 40
EC50 [8]: 1.8 µM
CC50 at 72 h [9]: 8.1 µM
MCC at 72 h [10]: 20 µM
inhibition [11]: inactive
inhibition [12]: inactive
inhibition [13]: inactive
inhibition [14]: inactive
inhibition [15]: inactive
EC50 [16]: 2 µM

CC(C)(C)OC(=O)N[C@@H](CC(N)=O)C(=O)N(Cc1ccccc1)C1(C(=O)NCc2ccccc2)CCN(Cc2ccccc2)CC1
selectivity ratio [7]: ≤ 10
EC50 [8]: 6.7 µM
CC50 at 72 h [9]: > 100 µM
MCC at 72 h [10]: > 100 µM
EC50 [16]: 6.3 µM

COC(=O)C[C@H](NC(=O)OC(C)(C)C)C(=O)N(Cc1cccc(F)c1)C1(C(=O)NCc2ccccc2)CCN(Cc2ccccc2)CC1
selectivity ratio [7]: ≤ 10
EC50 [8]: 5.2 µM
CC50 at 72 h [9]: 75 µM
MCC at 72 h [10]: 47 µM
EC50 [16]: 4.1 µM

COC(=O)CC[C@H](NC(=O)OC(C)(C)C)C(=O)N(Cc1ccc(F)cc1)C1(C(=O)NCc2ccccc2)CCN(Cc2ccccc2)CC1
selectivity ratio [7]: ≤ 10
EC50 [8]: 10 µM
CC50 at 72 h [9]: > 100 µM
MCC at 72 h [10]: > 100 µM
EC50 [16]: 9.8 µM

CC(C)(C)OC(=O)N[C@@H](CC(N)=O)C(=O)N(Cc1ccc(F)cc1)C1(C(=O)NCc2ccccc2)CCN(Cc2ccccc2)CC1
selectivity ratio [7]: 26
EC50 [8]: 2.1 µM
CC50 at 72 h [9]: > 100 µM
MCC at 72 h [10]: > 100 µM
inhibition [11]: inactive
inhibition [12]: inactive
inhibition [13]: inactive
inhibition [14]: inactive
inhibition [15]: inactive
EC50 [16]: 1.8 µM

NC(=O)c1ncn([C@@H]2O[C@H](CO)[C@@H](O)[C@H]2O)n1 [RIBAVIRIN]
EC50 [8]: 31 µM
CC50 at 72 h [9]: 58 µM
MCC at 72 h [10]: 100 µM
EC50 [17]: 20 µM
EC50 [16]: 22 µM
EC50 [18]: 11 µM

CC(C)(C)OC(=O)N[C@@H](CC(=O)O)C(=O)N(Cc1ccc(F)cc1)C1(C(=O)NCc2ccccc2)CCNCC1
EC50 [8]: > 100 µM
CC50 at 72 h [9]: 49 µM
MCC at 72 h [10]: 79 µM
inhibition [11]: inactive
inhibition [12]: inactive
inhibition [13]: inactive
inhibition [14]: inactive
inhibition [15]: inactive
EC50 [16]: > 100 µM

COC(=O)C[C@H](NC(=O)OC(C)(C)C)C(=O)N(Cc1ccccc1F)C1(C(=O)NCc2ccccc2)CCN(Cc2ccccc2)CC1
selectivity ratio [7]: ≤ 10
EC50 [8]: 8.7 µM
CC50 at 72 h [9]: 72 µM
MCC at 72 h [10]: 20 µM
EC50 [16]: 9.3 µM

CN(C)C(=O)COC(=O)Cc1ccc(OC(=O)c2ccc(NC(=N)N)cc2)cc1
inhibition [19]: 90%
inhibition [20]: 90%

CC[C@H](C)[C@H](NC(=O)OCc1ccccc1)C(=O)N(C1CC1)C1(C(=O)NC(C)(C)C)CCN(Cc2ccccc2)CC1
selectivity ratio [7]: 13
EC50 [8]: 3.9 µM
CC50 at 72 h [9]: 59 µM
MCC at 72 h [10]: 100 µM
EC50 [16]: 4.3 µM
